Patent EP0435221A2, “New benzanthracene compound and a process for preparing the same” (HOECHST JAPAN LIMITED, priority 1989, dated 1991)
Converted amounts (≈) assume the structure as drawn.

Test system: mouse leukemia L-1210 cells
Assay: inhibitory effect on the proliferation of mouse leukemia L-1210 cells
Type: cell-based
Conditions: L1210; 50% inhibitory concentration; proliferation of mouse leukemia L-1210 cells (1 x 10⁶ cells/ml)
Description: Compound 683 of the present invention, as well as the structurally related X-14881 D, was tested for inhibitory effect on the proliferation of mouse leukemia L-1210 cells(1 x 10⁶ cells/ml). The 50% inhibitory concentration values thereof are as follows.

COc1cccc2c1C(O)C13C=CC4=C(C(=O)CC(C)C4O)C1(O3)C2O (centres unmarked) [Compound 683]
IC50: 3 µg/mL (≈ 8.42 µM)

COc1cccc2c1C(O)C1(O)C=CC3=C(C(=O)CC(C)C3O)C1C2O (centres unmarked) [X-14881 D]
IC50: > 100 µg/mL
